Reference: publication PMC5429621 (Scientific Reports, 2017)

Assays:
[1] = tested on: tumour growth; parameters: method as in PMID 22505653; conditions: cited from earlier work
[2] = molecular target: T1, P2X7 73–79 deletion mutant (hP2X7-2Nβ background) (Homo sapiens, UniProt Q99572, DEL73-79/I21V/M24R/N16P/N25R/Q22R/R20V/S23N/T19I/Y26L); assay: two-electrode voltage clamp, Xenopus oocytes; format: cell-based
T1 construct: expressed in transfected cells; host or cells: Xenopus laevis oocytes (cRNA injected)
T1 sequence (Q99572 with tags, fused parts or gaps N16P/T19I/R20V/I21V/Q22R/S23N/M24R/N25R/Y26L/DEL73-79): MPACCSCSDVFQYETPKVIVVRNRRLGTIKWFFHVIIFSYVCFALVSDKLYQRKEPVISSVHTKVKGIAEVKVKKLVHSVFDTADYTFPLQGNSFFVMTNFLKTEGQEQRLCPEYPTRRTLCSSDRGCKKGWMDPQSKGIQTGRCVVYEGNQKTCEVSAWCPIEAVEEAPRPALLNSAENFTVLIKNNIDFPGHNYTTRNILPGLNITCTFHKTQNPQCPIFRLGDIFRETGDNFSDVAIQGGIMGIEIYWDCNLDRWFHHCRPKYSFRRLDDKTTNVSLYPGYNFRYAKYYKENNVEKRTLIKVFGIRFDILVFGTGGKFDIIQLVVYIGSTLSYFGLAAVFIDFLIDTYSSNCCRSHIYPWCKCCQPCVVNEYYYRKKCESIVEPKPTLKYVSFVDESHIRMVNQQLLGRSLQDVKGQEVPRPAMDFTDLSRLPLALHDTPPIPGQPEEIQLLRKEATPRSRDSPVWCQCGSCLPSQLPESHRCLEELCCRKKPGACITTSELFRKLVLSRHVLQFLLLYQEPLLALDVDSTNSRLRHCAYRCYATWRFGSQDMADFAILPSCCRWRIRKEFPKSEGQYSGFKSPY

Compound	effect of AZ10606120 treatment in animal studies (tumour) [1]	increase in ATP sensitivity ([2]; 73–79 del, relative to P2X7-2Nβ)	Peak amplitude ([2]; 73–79 delete, maximal ATP)
Cl.Cl.O=C(CC12CC3CC(CC(C3)C1)C2)Nc1cccc2nc(NCCNCCO)ccc12 [AZ10606120, N-[2-[[2-[(2-Hydroxyethyl)amino]ethyl]amino]-5-quinolinyl]-2-tricyclo[3.3.1.13,7]dec-1-ylacetamide dihydrochloride]	reduced tumour growth		
Nc1ncnc2c1ncn2[C@@H]1O[C@H](COP(=O)(O)OP(=O)(O)OP(=O)(O)O)[C@@H](O)[C@H]1O [ATP]		2–3 fold	2.05 ± 0.23 μA
